These results are taken from patent US20250152601A1, “Compositions and Methods for the Treatment of Sexual Dysfunctions” (The Jonathan Hurt Living Trust, priority 2022, published 2025).

The structures appear in SMILES notation. Where a name gives a salt, the structure may show the parent alone. Read-outs that look alike come from different tables or passages of the source.

The subject of data set [1] is tactile sexual function (TSF). Put plainly: Self-measured tactile sexual function (TSF) scores C, CT, A, B, BM, BS after ingesting treatment substance(s).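 On all read-outs here: Self-rated by the single male inventor (about 65 kg) after oral intake, capsules unless noted, on the TSF scale, each one-unit score rise means roughly double the sensation intensity.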 The note with it: for effect on TSF, stated in words: inventor; for TSF when both paroxetine and finasteride were ingested: during use of both drugs; for C, A and B scores when combined with Val and NAC: at 60 minutes.
Description: Some treatment substances were in liquid form when orally ingested. For the Working Examples herein all treatment substances were in capsule form unless otherwise noted in the Tables herein. […] It is contemplated that the mg per kilogram dose of treatment substances and/or the time from ingesting one or more treatment substances may vary from person to person for optimum improvement in treating a sexual dysfunction (e.g., an SRSS including reduced TSF or absent TSF). In some instances, it is contemplated that ingesting one treatment substance may be done at a different time than ingesting another treatment substance to optimize the effect in treating a sexual dysfunction.
For a male, the A score is the highest intensity of TSF just before the first muscle contraction of ejaculation, and the B score is the highest intensity of TSF just after the first muscle contraction of ejaculation.

Data set [2] relates to ejaculation/orgasm. The data set is described as follows: Ejaculation scores D (strength of the muscle contractions during ejaculation) and DE (ease to achieve ejaculation), incl. FE/FO. Format: in vivo, human. The note with it: for effect on D/DE scores, stated in words: Examples with the positive cholinergic; for time after ingestion at which the increase in DE score may peak: before 60 minutes; for average D score / average DE score: when not combined with another listed positive cholinergic.
Protocol: Variations in TSF and other sexual responses were noticed after ingesting a treatment substance, and additional scores to describe these responses were recorded in some examples. In some examples the C score for TSF was localized only to the head (“glands”) of the penis when one or more C score measurements were taken prior to attempted or achieved ejaculation/orgasm. […] In some examples after ingesting a treatment substance, the speed of B score decrease from the first muscle contraction to the last muscle contraction of ejaculation was recorded as the “BS” score using terms such as “IS” for instantaneous loss of TSF where a B score of 0.0 occurred at or immediately after the first muscle contraction, “FT” for a fast loss of TSF, and “SL” for a slow loss of TSF. In some examples the minimum B score measured at or near the last muscle contraction was recorded as the “BM” score using the same scoring parameters as for the B score. […] In some examples the ease to achieve ejaculation was recorded as the “DE” score, with a score of 1.0 being ejaculation achieved with some difficulty, 2.0 being a typical/normal ease of ejaculation, and a 3.0 being of the ease of ejaculation was promoted. […] When a score (e.g., C, CT, A, B, BM, BS, D, DE) was not recorded or not applicable then “N/A” is listed for that score and that score was not used (no numeric score) for mathematical evaluations in such an occurrence.
Dietary vitamins and nutritional supplements were ingested about 7:00 AM to about 10:30 AM with coffee, and coffee consumption ended by about 12:00 PM or earlier. No food was ingested during the day before measurements as only one meal a day is typically eaten in the evening.
Measurements were made in the morning from about 7:30 AM until about 11:30 AM.
Dietary vitamins and nutritional supplements were ingested about 7:00 AM to about 10:30 AM with coffee, and coffee consumption ended by about 12:00 PM or earlier.
No food, dietary vitamins or nutritional supplements were ingested the day of the measurements until after the measurements were taken.

Data set [3] in a line: Non-sexual side effects associated with ingesting treatment substances.
The conditions of data set [4]: in ester or salt form, cited from earlier work.
Data set [5] concerns mGlu(2/3)-R. As to conditions: rats, striatum; cited from earlier work.
The target in data set [6] is mGlu5-R (Homo sapiens, UniProt P41594). As to conditions: Glu released by Xc- after exchange for Cys2; cited from earlier work.
For data set [7] the following is noted: in vivo; cited from earlier work.
In data set [8] the test system is tactile sexual function (TSF). Put plainly: C score at varying time points after ingestion (duration of effect; rise, peak, fall pattern or decline pattern). Format: in vivo, human. As to conditions: C scores at 20 to 60 minutes. The text has this:
Table 42 records the increases/decreases in C scores over time as a measure of the duration of the effect of ingesting a treatment substance on TSF, for some working examples listed in previous tables. These working examples measured TSF for C scores at varying time points after the first ingestion of a treatment substance and before the measurement of the B score. Negative time scores indicate that the C score measurement occurred prior to ingesting a treatment substance, such as at example T37:82 the […] time is listed as −20 as the measurement for the C score at the C1 time was made 20 minutes before ingesting the treatment substance. In some examples additional rows were used to record C scores (e.g., examples T37:82 and T40:1). The duration of the effect of treatment substance(s) on the C score varied, with some reaching a peak C score before the B score measurement (e.g., see example T37:43), and other still increasing in C score to the B score measurement (e.g., see example T41:8).
Early C score measurements, when available, are shown for 20, 30, 40, and/or 50 minutes. […] Individual combinations of Val and NAC and another treatment substance may vary from the average's rise, peak, fall pattern (e.g., T41:120). […]

[9] abbreviates: after the first day of ingesting bupropion.
[10] abbreviates: prolonged daily ingestion (D-Asp 3000 mg/day about a week; bupropion per prescription, following months).
The mark [11] stands for this setting: Table 47A, dose in mg per example: Phenibut 450, Homotaurine 50, 150, 200, 250, listed as T38:5.
The mark [12] stands for this setting: Table 47A, dose in mg per example: Phenibut 450, Homotaurine 50, 150, 200, 250, listed as T38:18.
The mark [13] stands for this setting: Table 47A, dose in mg per example: Phenibut 450, Homotaurine 50, 150, 200, 250.
Where [14] appears, read: Table 47A, dose in mg per example: Phenibut 450, Homotaurine 50, 150, 200, 250, beverage and time as in Tables 37, 38, 39.
The mark [15] stands for this setting: Table 39C, ingested at times other than 60 minutes before measurements.
The mark [16] stands for this setting: Table 39B, ingested at times other than 60 minutes before measurements, various beverages.

Sequence of mGlu5-R (P41594 21-1212): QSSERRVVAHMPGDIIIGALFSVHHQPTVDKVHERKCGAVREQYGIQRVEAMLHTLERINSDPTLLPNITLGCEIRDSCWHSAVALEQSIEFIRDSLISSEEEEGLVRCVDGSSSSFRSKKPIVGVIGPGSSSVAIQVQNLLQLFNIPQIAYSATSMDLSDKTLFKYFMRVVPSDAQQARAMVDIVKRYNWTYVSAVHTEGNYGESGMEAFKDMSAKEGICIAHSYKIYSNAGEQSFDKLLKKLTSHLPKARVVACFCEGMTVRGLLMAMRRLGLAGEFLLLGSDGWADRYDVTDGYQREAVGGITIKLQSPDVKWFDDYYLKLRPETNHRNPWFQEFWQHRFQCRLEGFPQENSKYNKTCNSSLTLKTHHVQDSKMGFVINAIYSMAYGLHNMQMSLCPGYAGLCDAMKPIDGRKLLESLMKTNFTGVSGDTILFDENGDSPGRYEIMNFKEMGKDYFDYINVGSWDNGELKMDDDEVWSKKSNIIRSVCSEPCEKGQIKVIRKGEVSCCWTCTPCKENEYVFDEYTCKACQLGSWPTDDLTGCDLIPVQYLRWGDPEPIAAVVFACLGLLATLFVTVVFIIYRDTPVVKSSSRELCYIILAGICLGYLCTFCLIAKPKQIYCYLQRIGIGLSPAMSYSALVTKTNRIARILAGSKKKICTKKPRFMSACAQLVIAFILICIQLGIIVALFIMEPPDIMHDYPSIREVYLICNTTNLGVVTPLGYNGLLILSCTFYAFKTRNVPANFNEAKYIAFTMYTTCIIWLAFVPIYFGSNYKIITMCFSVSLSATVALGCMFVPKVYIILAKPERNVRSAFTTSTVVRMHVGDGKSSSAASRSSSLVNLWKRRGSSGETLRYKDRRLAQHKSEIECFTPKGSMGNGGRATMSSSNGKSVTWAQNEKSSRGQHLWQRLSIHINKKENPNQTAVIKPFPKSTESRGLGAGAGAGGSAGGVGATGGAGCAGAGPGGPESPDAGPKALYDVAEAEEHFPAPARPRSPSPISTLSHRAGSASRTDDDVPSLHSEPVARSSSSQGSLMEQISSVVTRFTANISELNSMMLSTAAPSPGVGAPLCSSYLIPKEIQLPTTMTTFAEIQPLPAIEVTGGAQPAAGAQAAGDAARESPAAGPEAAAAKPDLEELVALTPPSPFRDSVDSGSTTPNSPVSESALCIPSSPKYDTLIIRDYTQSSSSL

Take `CC(=O)N[C@@H](CCC(N)=O)C(=O)O` [AcetylGln, N-Acetyl L-Glutamine]: the “effect on TSF, stated in words” value in data set [1] is reported as “relatively weak effect”.
In the case of `CC(NC(C)(C)C)C(=O)c1cccc(Cl)c1` (stereo not drawn) [Bupropion, reference compound], in data set [2] (setting [9]), the D score was 3.0 and the DE score is recorded as 2.0. In data set [2] (setting [10]), this compound came in with a D score of 3.0 and a DE score of 2.0. For the same compound, the “non-sexual side effect / adverse event” value in data set [3] (after ingesting the treatment substance) was “feeling odd/under the influence of a drug”. In data set [1] (setting [9]), the A score entry was “about 4”, the B score entry is “about 4” and the C score entry was “less than 1”. For the same compound, in data set [1] (setting [10]), the A score amounted to 0, the B score was 0, the BM score is 0 and the C score came to 0.
For the compound `C[C@@H](O)CC(=O)O` [D-Beta-Hydroxybutyrate], the “blood ketone bodies such as D-Beta-Hydroxybutyrate” value is 1.0 mM in data set [4] (12 grams) and 2.8 mM in data set [4] (24 grams).
`NCCCS(=O)(=O)O` [Example T38: 5, Homotaurine] returned a C score in data set [1] (Table 47A, dose in mg per example: Phenibut 450, Homotaurine 50, 150, 200, 250, beverage and time as in Tables 37, 38, 39, listed as T38:5) of 1.8. In data set [1] (setting [11]), this compound registered an A score of 9.5 and a B score of 9.5.
Compound `NCCCS(=O)(=O)O` [Example T38: 18, Homotaurine] yielded a C score in data set [1] (Table 47A, dose in mg per example: Phenibut 450, Homotaurine 50, 150, 200, 250, beverage and time as in Tables 37, 38, 39, listed as T38:18) of 1.0. In data set [1] (setting [12]), this compound showed an A score of 9.2 and a B score of 9.2.
For `CC(C)(C)NC(=O)[C@H]1CC[C@H]2[C@@H]3CC[C@H]4NC(=O)C=C[C@]4(C)[C@H]3CC[C@]12C` [Finasteride, reference compound], in data set [1] (oral, per prescription), the “TSF when both paroxetine and finasteride were ingested” value is on record as “complete lack of TSF”. The “effect on TSF while ingesting the drug” value in data set [1] (oral, per prescription, inventor before SRSS) is “moderately reduced TSF”.
With `NCCCC(=O)O` [GABA, gamma-aminobutyric acid], the “effect on TSF, stated in words” value in data set [1] is “mild improvement in TSF relative to Val”.
In the case of `COc1ccc2c3c1O[C@H]1C[C@@H](O)C=C[C@@]31CCN(C)C2` [Galantamine HBr, Galantamine Hydrobromide, reference compound], in data set [2], the “effect on D/DE scores, stated in words” value is “generally had improved D/DE scores”; the “time after ingestion at which the increase in DE score may peak” value is “about 40 minutes”; the “average D score” value is “about 3.6”; the “average DE score” value was 2.4.
In the case of `N[C@@H](CCC(=O)O)C(=O)O` [Glu, Glutamic Acid], the “Glu concentration that activated the mGlu(2/3)-R” value in data set [5] was 0.5 µM. The “Glu level at which the extrasynaptic mGlu5-R becomes activated” value in data set [6] is 500 µM.
In the case of `C/C=C1\[C@H]2C=C(C)C[C@]1(N)c1ccc(=O)[nH]c1C2` [Huperzine A], in data set [2], the “effect on D/DE scores, stated in words” value was “also had Examples of improved D/DE scores”; the “time after ingestion at which the increase in DE score may peak” value was “about 40 minutes”; the “average D score” value was found to be 3; the “average DE score” value is given as 1.9.
Consider `CC(=O)N[C@@H](CS)C(=O)O` [NAC, N-Acetyl-Cysteine, reference compound], for which the “effect on TSF, stated in words” value in data set [1] is “no positive effect was noticed on TSF”.
The same measure, in the same setting: then `CN[C@H](CC(=O)O)C(=O)O` [NMDA, N-Methyl-D-Aspartic Acid, reference compound], with “negative effect on TSF scores”.
In data set [1] (setting [13]), `NCCCS(=O)(=O)O` [T37:56, Homotaurine] yielded an A score of 7.5 and a B score of 7.5. Also, the C score in data set [1] (setting [14]) came to 1.2.
As for `NCCCS(=O)(=O)O` [T37:57, Homotaurine], in data set [1] (setting [13]), the A score is given as 9.2 and the B score is listed as 9.2. Moreover, the C score in data set [1] (setting [14]) was 1.2.
As to `NCC(CC(=O)O)c1ccccc1` (stereo not drawn) [T39:13, Phenibut HCl], in data set [2] (setting [15]), the “D score (strength of the muscle contractions during ejaculation)” value worked out at 4.0 and the “DE score (ease to achieve ejaculation)” value is reported as 2.0. Further, the “Side Effect” value in data set [3] (non-sexual side effect after ingesting treatment substance(s)) was “Felt not normal”. For the same compound, in data set [3] (time after ingesting treatment substance(s), sometimes approximated), the “Time of Side Effect” value was in the range of 20 to 120 min. In data set [1] (setting [16]), this compound yielded an A score of 6.5, a B score of 6.5 and a C score of 1.5. In addition, in data set [1] (setting [15]), the A score came out at 6.5, the B score came to 6.5 and the C score stood at 1.5. In addition, in data set [1] (setting [13]), the A score is 6.5 and the B score came out at 6.5. In data set [1] (setting [14]), the C score came out at 1.5.
Regarding `CC(C)[C@H](N)C(=O)O` [Val, Valine], the “effect on TSF, stated in words” value in data set [1] is given as “stronger improvement in TSF than either Leu or Ile”.
As to `Cn1c(=O)c2c(ncn2C)n(C)c1=O` [caffeine, Caffeine], in data set [7], the average plasma half-life was 5 h.
Take `O=C1c2c(O)cc(O)cc2O[C@H](c2cc(O)c(O)c(O)c2)[C@H]1O` [dihydromyricetin, Dihydromyricetin]: in data set [8], the “C score pattern over time when ingested alone” value is listed as “decline pattern”. Moreover, in data set [1], the “C, A and B scores when combined with Val and NAC” value was “C, A and B scores less than the lowest C, A and B scores of Val and NAC alone”; the “effect on TSF, stated in words” value is “reduced positive TSF scores”.
As for `COc1ccc([C@@H]2CC(=O)c3c(O)cc(O[C@@H]4O[C@H](CO[C@@H]5O[C@@H](C)[C@H](O)[C@@H](O)[C@H]5O)[C@@H](O)[C@H](O)[C@H]4O)cc3O2)cc1O` [hesperidin, Hesperidin], in data set [8], the “C score pattern over time when combined with Val and NAC” value was “rise, peak, fall pattern of C scores and not a high C, A, and/or B scores”.
For `COc1ccc(-c2oc3c(CC=C(C)C)c(O[C@@H]4O[C@H](CO)[C@@H](O)[C@H](O)[C@H]4O)cc(O)c3c(=O)c2O[C@@H]2O[C@@H](C)[C@H](O)[C@@H](O)[C@H]2O)cc1` [icariin, Icariin], the “C, A and B scores when combined with Val and NAC” value in data set [1] was “C score below a preferred C score and A and B scores that matched the lowest A and B scores of Val and NAC alone”.
In the case of `Fc1ccc([C@@H]2CCNC[C@H]2COc2ccc3c(c2)OCO3)cc1` [paroxetine, reference compound], the “TSF after discontinuing paroxetine use” value in data set [1] (finasteride continued) was “absence of TSF continued much to most of the time”. For the same compound, in data set [1] (oral, per prescription), the “TSF when both paroxetine and finasteride were ingested” value is recorded as “complete lack of TSF”.
`NCC(CC(=O)O)c1ccccc1` (stereo not drawn) [phenibut, Phenibut HCl]: the “effect on TSF, stated in words” value in data set [1] is reported as “weaker effect on improving A/B TSF scores”.
Consider `CCNC(=O)CC[C@H](N)C(=O)O` [theanine, Theanine], for which the “number of Examples with failure to ejaculate” value in data set [2] (of 14 Examples having theanine as a treatment substance, 12 failures in all Examples) is on record as 3.
